In patent US8173645B2 (Takeda San Diego, Inc., priority 2007, dated 2012):

Molecular target: T1, glucokinase (GK), residues 12-465 of the human enzyme (Homo sapiens, UniProt P35557)
T1 construct: I.D. No. 1 corresponds to residues 12-465 of glucokinase; made in house; host or cells: E. coli DH10b-Tlr
T1 sequence (P35557 with tags, fused parts or gaps isoform P35557-2): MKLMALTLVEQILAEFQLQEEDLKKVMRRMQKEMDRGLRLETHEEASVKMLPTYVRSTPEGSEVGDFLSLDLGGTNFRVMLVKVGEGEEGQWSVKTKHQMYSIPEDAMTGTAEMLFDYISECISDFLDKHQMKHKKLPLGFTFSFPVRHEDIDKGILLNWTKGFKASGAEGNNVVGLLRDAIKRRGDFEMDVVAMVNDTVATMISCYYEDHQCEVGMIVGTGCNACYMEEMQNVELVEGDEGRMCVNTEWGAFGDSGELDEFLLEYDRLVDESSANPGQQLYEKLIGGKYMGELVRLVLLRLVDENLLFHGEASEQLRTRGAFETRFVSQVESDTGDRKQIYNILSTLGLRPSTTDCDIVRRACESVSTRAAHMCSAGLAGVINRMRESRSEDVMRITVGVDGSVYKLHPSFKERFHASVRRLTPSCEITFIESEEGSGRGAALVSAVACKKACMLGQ
Assay: Enzymatic glucokinase activity assay (KinaseGlo luminescence, ATP consumption)
Assay type: biochemical
Conditions: 5 μM ATP, 5 mM Glucose; for EC50: GK activation, Kact = concentration giving 50% of the maximal increase in GK activity, read-out: pKact; for Emax: calculated maximal gain in GK enzyme activity at a saturating concentration of the compound, read-out: % ACTmax
Outline: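 Activation measured as ATP consumption: residual ATP detected by KinaseGlo luminescence after 60 min at room temperature with 5 μM ATP and 5 mM glucose (Hepes pH 7.2, MgCl2, Brij35, DTT, 2% DMSO). Enzyme was recombinant FLAG-tagged protein from E. coli. Eleven-point twofold series were fitted nonlinearly for pKact and % ACTmax.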

Compound | EC50 | Emax
O=C(Nc1nccs1)[C@H](CC1CCCCC1)N1CCN(S(=O)(=O)c2cc3ccccc3s2)CC1=O [Example 104, (S)-2-(4-(benzo[b]thiophen-2-ylsulfonyl)-2-oxopiperazin-1-yl)-3-cyclohexyl-N-(thiazol-2-yl)propanamide] | ≤ 0.631 µM | 74.1 to 97%
O=C(Nc1nccs1)[C@H](CC1CCCCC1)N1CCN(C(=S)Nc2ccc(F)cc2)CC1=O [Example 83, (S)-3-cyclohexyl-2-(4-(4-fluorophenylcarbamothioyl)-2-oxopiperazin-1-yl)N-(thiazol-2-yl)propanamide] | ≥ 3.16 µM | 108 to 119%
O=C(Nc1nccs1)[C@H](CC1CCCCC1)N1CCN(S(=O)(=O)c2ccc(F)c(F)c2)CC1=O [Example 103, (S)-3-cyclohexyl-2-(4-(3,4-difluorophenylsulfonyl)-2-oxopiperazin-1-yl)-N-(thiazol-2-yl)propanamide] | ≤ 0.631 µM | 108 to 119%
O=C(Nc1nccs1)[C@H](CC1CCCCC1)N1CCN(C(=O)Nc2ccc(Cl)c(Cl)c2)CC1=O [Example 131, (S)-4-(3-cyclohexyl-1-oxo-1-(thiazol-2-ylamino)propan-2-yl)-N-(3,4-dichlorophenyl)-3-oxopiperazine-1-carboxamide] | ≥ 3.16 µM | ≤ 74%
O=C(Nc1nccs1)[C@H](CC1CCCCC1)N1CCN(C(=S)NCCCN2CCOCC2)CC1=O [Example 118, (S)-3-cyclohexyl-2-(4-(3-morpholinopropylcarbamothioyl)-2-oxopiperazin-1-yl)-N-(thiazol-2-yl)propanamide] | 1.58 to 2.51 µM | 97.1 to 107%
O=C(Nc1nccs1)[C@H](CC1CCCCC1)N1CCN(C(=S)Nc2ccc(Cl)c(Cl)c2)CC1=O [Example 87, (S)-3-cyclohexyl-2-(4-(3,4-dichlorophenylcarbamothioyl)-2-oxopiperazin-1-yl)-N-(thiazol-2-yl)propanamide] | ≥ 3.16 µM | 74.1 to 97%
COc1cccc(S(=O)(=O)N2CCN([C@@H](CC3CCCCC3)C(=O)Nc3nccs3)C(=O)C2)c1 [Example 92, (S)-3-cyclohexyl-2-(4-(3-methoxyphenylsulfonyl)-2-oxopiperazin-1-yl)-N-(thiazol-2-yl)propanamide] | 0.794 to 1.26 µM | ≥ 119%
COc1ccc(S(=O)(=O)N2CCN([C@@H](CC3CCCCC3)C(=O)Nc3nccs3)C(=O)C2)cc1OC [Example 88, (S)-3-cyclohexyl-2-(4-(3,4-dimethoxyphenylsulfonyl)-2-oxopiperazin-1-yl)-N-(thiazol-2-yl)propanamide] | ≥ 3.16 µM | 97.1 to 107%
O=C(Nc1nccs1)[C@H](CC1CCCCC1)N1CCN(C(=O)Nc2cccc3ccccc23)CC1=O [Example 77, (S)-4-(3-cyclohexyl-1-oxo-1-(thiazol-2-ylamino)propan-2-yl)-N-(naphthalen-1-yl)-3-oxopiperazine-1-carboxamide] | ≥ 3.16 µM | 74.1 to 97%

Continued, values first:

EC50 | Emax | Compound
≤ 0.631 µM | ≥ 119% | O=C(Nc1nccs1)[C@H](CC1CCCCC1)N1CCN(S(=O)(=O)c2cccc(Cl)c2F)CC1=O [Example 188, (S)-2-(4-(3-chloro-2-fluorophenylsulfonyl)-2-oxopiperazin-1-yl)-3-cyclohexyl-N-(thiazol-2-yl)propanamide]
0.794 to 1.26 µM | 74.1 to 97% | O=C(Nc1nccs1)[C@H](CC1CCCCC1)N1CCN(S(=O)(=O)c2cc(F)c(Cl)cc2F)CC1=O [Example 190, (S)-2-(4-(4-chloro-2,5-difluorophenylsulfonyl)-2-oxopiperazin-1-yl)-3-cyclohexyl-N-(thiazol-2-yl)propanamide]
≤ 0.631 µM | 108 to 119% | O=C(Nc1nccs1)[C@H](CC1CCCCC1)N1CCN(S(=O)(=O)N2CCCC2)CC1=O [Example 229, (S)-3-cyclohexyl-2-(2-oxo-4-(pyrrolidin-1-ylsulfonyl)piperazin-1-yl)-N-(thiazol-2-yl)propanamide]
≤ 0.631 µM | ≥ 119% | O=C(Nc1nccs1)[C@H](CC1CCCCC1)N1CCN(S(=O)(=O)c2ccccc2F)CC1=O [Example 205, (S)-3-cyclohexyl-2-(4-(2-fluorophenylsulfonyl)-2-oxopiperazin-1-yl)-N-(thiazol-2-yl)propanamide]
1.58 to 2.51 µM | ≤ 74% | Cc1cc(S(=O)(=O)N2CCN([C@@H](CC3CCCCC3)C(=O)Nc3nccs3)C(=O)C2)c(Cl)cc1Cl [Example 221, (S)-3-cyclohexyl-2-(4-(2,4-dichloro-5-methylphenylsulfonyl)-2-oxopiperazin-1-yl)-N-(thiazol-2-yl)propanamide]
≥ 3.16 µM | 74.1 to 97% | COc1ccc2nc(NC(=O)C(CC3CCOCC3)N3CCN(S(=O)(=O)C4CC4)CC3=O)sc2n1 (centres unmarked) [Example 26, 2-(4-(cyclopropylsulfonyl)-2-oxopiperazin-1-yl)-N-(5-methoxythiazolo[5,4-b]pyridin-2-yl)-3-(tetrahydro-2H-pyran-4-yl)propanamide]
≤ 0.631 µM | ≥ 119% | O=C(Nc1ncc(Cl)s1)C(CC1CCCC1)N1CCN(S(=O)(=O)C2CC2)CC1=O (centres unmarked) [Example 16, N-(5-chlorothiazol-2-yl)-3-cyclopentyl-2-(4-(cyclopropylsulfonyl)-2-oxopiperazin-1-yl)propanamide]
